As a reminder, the Kd is the free concentration of one partner at which half of the binding sites on the other are occupied at equilibrium, for simple one-to-one binding.

Consider 2 compounds from paper PMC13500670, “The U1 snRNP protein U1C and Helix H of U1 snRNA are critical for small molecule splicing modulator function” (Nature Communications, 2026).

The subject of experiment [1] is cassette exon / GA/GU iExon inclusion, HEK293 cells, scr siRNA. Put plainly: RNA-seq splicing analysis, compound dose response, scrambled (mock) siRNA. It counts as cell-based, human. The source says: (§1) Skipped exons are highly enriched for noncanonical 5′ ss sequences (on either the intronic or exonic side), which account for 90% of skipped exons (Supplementary Fig. 8C). For example, among skipped exons with a canonical exonic 5′ ss sequence, 74% contain noncanonical intron sequence. These observations are consistent with the previous published role for U1C stabilization of the U1 snRNA-pre-mRNA duplex at the 5′ ss[25]–[28]. […] We will refer to these as class I exons for clarity in later discussion.
(§2) We next examined the effect of U1C knockdown on compound-mediated splicing. […] We next used the complete dose response to calculate the effective concentration at which deltaPSIcompound-DMSO is 30 (EC-dPSI30).
(§3) HEK293T cells were grown in DMEM media with 10% FBS. 500,000 cells in 1.75 mL of media were plated into a 6-well plate for approximately 6 h. Either siRNA negative control (ThermoFisher Silencer^TM Negative control #2, AM4613) or U1C siRNA (ThermoFisher Silencer^TM Select Pre-designed siRNA, S13225) were transfected for a final concentration of 25 nM using Invitrogen Lipofectamine RNAiMax (13778-150). In brief, 10 μL 5 μM siRNA was added to 115 μL of OptiMEM, while 5 μL Lipofectamine added to 120 μL OptiMEM for 5 minu before mixing the solutions and incubating for 20 min. 250 μL of Lipofectamine:siRNA solution was gentle added to the 1.75 mL cells. After 24 h post-transfection, cells were treated with 10 μL compound resuspended in DMSO. […] Each compound-treated experimental condition was treated and collected in duplicate, while four DMSO only treated samples per siRNA transfection were collected. RNA was isolated using KingFisher^TM Apex instrument and the MagMAX™ mirVana™ Total RNA Isolation Kit (A27828) by Thermo Fisher according to manufacturer’s protocol. Isolated RNA was submitted to Admera Health for library preparation (polyA selected, stranded) and mRNA-sequencing and >20 M 150 bp pair-end reads were returned.
RNAseq and splicing analysis were described earlier using DEDseq (https:// github.com/liwc01/DEDSeq[18]) with minor modifications. RNA sequencing reads were mapped to human genome (hg19) using STAR (version 2.7.10b); only uniquely mapped reads (with MAPQ > 10) with <5 nt/100 nt mismatches and properly paired reads were used. For splicing analysis, all junction reads (read with a gap in alignment indicating splicing) were used, including the ones mapped to unannotated splice sites. Reads were counted for different exons (for cassette exon [CE]) or exonic regions (for A5′ss or A3′ss). For each splicing event, a percent-spliced-in (PSI) value was calculated using the percent of average read number supporting the inclusion among all reads supporting either the inclusion or the exclusion. A minimum of 10 for the denominator of PSI calculation was required. Otherwise, a “NA” value would be generated. PSI values for biological replicates were averaged, and the PSI difference between the two treatment groups was calculated. For a statistical test, a 2 × 2 read counts table was made for each event, with rows for reads supporting inclusion or exclusion, and columns for the two comparing sample groups. Fisher’s exact test was used for the statistical tests. For biological replicates, each pair of the testing and control sample was analyzed by Fisher’s exact test and the geometric mean of all P-values was reported as a final P-value. PSI change (deltaPSI) of >10% (or < −10%) and P < 0.001 was used to select splicing events being regulated by the treatment. PSI calculation, Fisher’s exact test were performed using R (4.0.5). 5′ ss composition analysis was performed as described in ref. [25]. Potency of splicing modulator was determined by plotting dPSI and identifying the concentration at which the change in PSI reached 30% and reported as EC_dPSI30.

Experiment [2] concerns the target T1, U1 snRNP + FOXM1 5' ss oligo (Homo sapiens, UniProt P09234).
T1 construct: host or cells: either HeLa-S3 U1A-HTP cells (native, as F1) or E. coli proteins (reconstituted, as F2)
As to the kind of experiment: FP: U1 snRNP binding to FOXM1 5' ss oligo (Supplementary Fig. 2). As for the experimental part:
All of 5′-FAM labeled RNA oligos used in this study were synthesized and purified by IDT (USA). Fluorescence polarization (FP) assays were performed in binding buffer (20 mM HEPES pH 7.5, 1 mM MgCl2, 200 mM KCl, 0.01% TritonX-100, 0.1%PEG3350, 2%DMSO) at room temperature using a Envision HTS Plate Reader system (Revvity). Each reaction system contains 3 nM of FAM-labeled RNA oligo, reconstituted U1 snRNP (or native U1 snRNP, or full-length U1 snRNA, or the 5′end of U1 snRNA) at twofold increasing concentrations, 800 nM (for reconstituted U1 snRNP) or 400 nM (for native U1 snRNP) U1C, different small molecules in DMSO (10 μM unless otherwise stated). The equilibrium dissociation constants (Kd) of binding reaction were calculated using the following single-site binding model formula in GraphPad Prism: y=START+(END−START)x/kD+x where x and y represent the concentration of U1 snRNP (or U1 snRNA) and the polarization value measured respectively, START represents the polarization value of protein-free nucleic acid probe, END represents the maximum polarization value when U1 snRNP (or U1 snRNA) binds to the fluorescently labeled 5′ ss oligo. All FP experiments are carried out in two distinct biological replicates and error bars represent the standard deviation.

Experiment [3] has as its system cassette exon / GA/GU iExon inclusion, HEK293 cells, U1C KD. Put plainly: RNA-seq splicing analysis, compound dose response, U1C knockdown. The format is cell-based, human.
From the text: as §1, §2, §3
RNAseq and splicing analysis were described earlier using DEDseq (https:// github.com/liwc01/DEDSeq[18]) with minor modifications. RNA sequencing reads were mapped to human genome (hg19) using STAR (version 2.7.10b); only uniquely mapped reads (with MAPQ > 10) with <5 nt/100 nt mismatches and properly paired reads were used. For splicing analysis, all junction reads (read with a gap in alignment indicating splicing) were used, including the ones mapped to unannotated splice sites. Reads were counted for different exons (for cassette exon [CE]) or exonic regions (for A5′ss or A3′ss). For each splicing event, a percent-spliced-in (PSI) value was calculated using the percent of average read number supporting the inclusion among all reads supporting either the inclusion or the exclusion. A minimum of 10 for the denominator of PSI calculation was required. Otherwise, a “NA” value would be generated. PSI values for biological replicates were averaged, and the PSI difference between the two treatment groups was calculated. For a statistical test, a 2 × 2 read counts table was made for each event, with rows for reads supporting inclusion or exclusion, and columns for the two comparing sample groups. […] For biological replicates, each pair of the testing and control sample was analyzed by Fisher’s exact test and the geometric mean of all P-values was reported as a final P-value. […] Potency of splicing modulator was determined by plotting dPSI and identifying the concentration at which the change in PSI reached 30% and reported as EC_dPSI30.

Experiment [4] deals with short RNA duplex of 5' ss (11 nt) and U1 snRNA (11 nt). As to conditions: NMR construct without other U1 snRNP components; read-out: Kd between the compound and the short RNA duplex; cited from earlier work.

In the case of `Cc1cn2nc(-c3cc(=O)n4cc(N5CCNC6(CC6)C5)ccc4n3)cc(C)c2n1` [Risdiplam, risdiplam], the “geomean pEC_dPSI30 for all GA/GU iExons” value in experiment [1] (Fig. 8C, mock knockdown, -log10 of compound concentration when dPSI achieves 30%) was 6.05; in experiment [3] (Fig. 8C, U1C KD), 5.63. Also, the “saturation PSI of PDXDC1 iExon” value in experiment [1] (highest dose, mock and U1C KD reach similar saturation) worked out at 40. Further, in experiment [2], the “effect on binding between U1 snRNP and FOXM1 5' ss oligo” value was “no effect”. Moreover, the “U1CKD Log10 effect” value in experiment [3] (Fig. 8C picture, pEC-dPSI30 mock versus U1C KD) is on record as -0.42.
Consider `Cc1cn2cc(-c3cc(=O)n4cc(N5CCN(C)CC5)ccc4n3)cc(F)c2n1` [SMN-C5], for which, in experiment [4], the Kd is 28 µM.
